Measured values published in patent US20050070606A1, “Pharmaceutical agent for mitochondrial disorders” (Ajinomoto Co., Inc., priority 2002, published 2005).

How the values were obtained:
[1] = tested on: mRNAs of the proteins involved in the TCA cycle of liver mitochondria and the ATP generation in the electron transfer system; test: Expression of the genes for mitochondrial ATP generation-associated proteins (Taqman-PCR) in liver of rats after partial 70% hepatectomy; assay type: in vivo, rat; conditions: male F344 rats after partial 70% hepatectomy; L-alanine 2 g/10 ml/kg orally 18 and 21 hours after hepatectomy; liver at 24 hours; compared with the non-administered group; FIG. 1
Description: Male F344/DvCrj (Fischer) rats (age 6 weeks and body weight of 120 g) were preliminarily fed with CRF-1 (Oriental Yeast) and water for 6 weeks. Subsequently, the rats were divided in two groups of equal body weight. According to the Higgins-Anderson method (see Higgins, G. M. and Anderson, R. M., 1931, Arch. Pathol. 12: 186-191), partial 70% hepatectomy (left lobe, intermediate lobe) was performed. 18 and 21 hours after the partial hepatectomy, L-alanine at 2 g/10 ml/kg body weight in aqueous 0.3% carboxymethyl cellulose solution was administered orally (group 1), while only the aqueous 0.3% carboxymethyl cellulose solution was administered to the control group (group 2). 24 hours after the partial hepatectomy, anatomy was performed. The rats were killed by exsanguination under anesthesia and then the liver was resected and weighed. Subsequently, the liver was frozen and stored for assaying mRNA expression by the Taqman-PCR method.
To homogenize the liver, 10 ml ISOGEN (Nippon Gene) was added per 1 g of rat liver. […]
The Taqman PCR reactions were performed in duplicate to calculate the cycle time (CT) exceeding the threshold. […] By the following formula, the relative expression level was determined: Relative expression level=2^(30-CT sample)
Further, the relative value of the expression level of each gene was determined when the relative expression level of β-actin was defined as 1000.

[2] = tested on: mitochondrial membrane potential; test: Assaying mitochondrial membrane potential (JC-1 fluorescence) in liver mitochondrial suspension; assay type: biochemical; conditions: rat liver mitochondria 2 μg; various concentrations of L-alanine; excitation 490 nm, emission 590 nm; FIG. 2
Description: A male SD (IGS) rat of age 8 weeks was killed by exsanguination under ether anesthesia and then the liver was resected and washed twice with 1×Extraction Buffer A (10 mM HEPES (2-[4-(2-hydroxyethyl)-1-piperazinyl]ethanesulfonic acid, pH 7.5, 200 mM mannitol, 70 mM sucrose, 1 mM EGTA (ethylene glycol bis(β-aminoethyl ether)-N, N,N,N-tetraacetic acid). The liver was subsequently cut into a piece of about 100 mg and weighed, which was then cut into smaller pieces in a 5-ml tube.
A 10-fold volume of 1×Extraction Buffer A (containing 2 mg/ml albumin) was added to the tube and the liver was homogenized at a low speed on ice (15 seconds). The resulting homogenate was transferred into an Eppendorf tube for centrifugation at 600 g at 4° C. for 5 minutes. The supernatant was transferred to a new tube for centrifugation at 11,000 g and 4° C. for 10 minutes. After the supernatant was discarded, the precipitate was suspended in a 10-fold volume of 1×Extraction Buffer A. The procedure from centrifugation at 600 g and 4° C. for 5 minutes to centrifugation at 11,000 g and 4° C. for 10 minutes was repeated. […]
The resulting suspension was defined as the mitochondrial suspension for the following experiments. […] For assaying fluorescence intensity (excitation at 490 nm; emission at 590 nm), 2 μl of JC-1 (1 μg/ml) was added and incubated at ambient temperature for 7 minutes.

[3] = target: T1, COX (cytochrome C oxidase) (Rattus norvegicus, UniProt P00406+P05503); test: Assaying COX (cytochrome C oxidase) activity in liver mitochondrial suspension; assay type: biochemical; conditions: rat liver mitochondria 2.5 μg, reduced cytochrome c, FIG. 3
T1 construct: from tissue; host or cells: mitochondrial suspension (liver according to the earlier reading)
T1 sequence (P00406 whole entry, other chains not shown): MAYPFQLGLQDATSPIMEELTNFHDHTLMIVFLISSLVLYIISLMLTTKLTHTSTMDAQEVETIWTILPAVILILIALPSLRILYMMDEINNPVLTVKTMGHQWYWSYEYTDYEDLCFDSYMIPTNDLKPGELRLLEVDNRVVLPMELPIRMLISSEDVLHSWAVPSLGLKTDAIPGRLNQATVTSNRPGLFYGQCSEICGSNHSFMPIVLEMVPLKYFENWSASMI
Description: As described in Example 2, a mitochondrial suspension was prepared and adjusted to 0.1 mg/ml. 25 μl (2.5 μg) of mitochondria was blended with 950 μl of an assay buffer (10 mM Tris-HCl, pH 7.0, 120 mM KCl), to which various concentrations of L-alanine were added. 50 μl of cytochrome c (0.22 mM) reduced with 10 mg/ml sodium hydroxysulfite was added, and the resulting mixture was inversed and mixed together to start reaction. Immediately, the absorbance (550 nm) was counted continuously for one minute with a spectrophotometer, to record the decrease of the absorbance.

C[C@H](N)C(=O)O [L-alanine]
mRNAs of the proteins involved in the TCA cycle of liver mitochondria and the ATP generation in the electron transfer system [1]: significantly increased
fluorescence intensity of JC-1 (mitochondrial membrane potential) [2]: increased in an L-alanine concentration-dependent manner
concentration from which COX activity was increased ([3]; absorbance at 550 nm): ≥ 2.5 mM
COX activity ([3]; decrease of absorbance at 550 nm for one minute, various concentrations of L-alanine): increased the COX activity in a concentration-dependent manner
